Results on 46 molecules are retold here after US11286268B1, “EIF4E-inhibiting compounds and methods” (EFFECTOR THERAPEUTICS, INC., priority 2019, dated 2022).

Where two headings read alike, the source gives them in different places.

This test has as its target recombinant eIF4E (Homo sapiens (Human), UniProt P06730). As to the kind of experiment: Fluorescence polarization competition assay for eIF4E binding potency. An outline of the steps: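 IC50 derived from fluorescence polarization over an 8-point, 3-fold compound series after 30 min room-temperature equilibration in the dark. Mix: eIF4E 75 nM pre-bound 5 min to 20 nM EDA-m^7GDP-ATTO-550; buffer 20 mM Tris pH 7.5, 100 mM NaCl, 1 mM DTT, 0.02% Tween-20; DMSO 1%.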
Background: Polarisation of emitted light reports the rotation of a fluorescent probe.

The mark [1] stands for this setting: fluorescence polarization competition, 75 nM recombinant eIF4E, 20 nM EDA-m7GDP-ATTO-550, IC50 class, read-out: elF4E FP.
The mark [2] stands for this setting: inhibition of eIF4E/EDA-m7GDP-ATTO-550 binding by 50%, Table 4B calculated values, read-out: IC50.
The mark [3] stands for this setting: inhibition of eIF4E/EDA-m7GDP-ATTO-550 binding, calculated IC50 values, Table 4B, read-out: IC50.

Chain of recombinant eIF4E (P06730 whole entry): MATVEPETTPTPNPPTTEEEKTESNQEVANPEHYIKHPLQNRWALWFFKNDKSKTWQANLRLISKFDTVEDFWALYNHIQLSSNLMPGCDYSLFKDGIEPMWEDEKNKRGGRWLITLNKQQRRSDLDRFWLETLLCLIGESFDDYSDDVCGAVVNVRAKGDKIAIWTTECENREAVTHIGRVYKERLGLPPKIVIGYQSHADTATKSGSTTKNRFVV

With `CCN(c1ncc2nc(C)n(CC#Cc3ccc(Cl)cc3-c3ccnc4c(C(=O)O)csc34)c(=O)c2c1C#N)C1CCN(CC(C)(F)F)CC1` [compound 1177], the IC50 reads like this: under setting [1], under 50 nM; under setting [2], 34.2 nM.

On to `Cc1nc2cnc(N3CC(N4CC(F)(F)C4)C3)c(C#N)c2c(=O)n1CCOc1ccc(Cl)cc1-c1ccnc2c(C(=O)O)csc12` [compound 1341], for which, under setting [3], the IC50 is 21.5 nM.

In the case of `Cc1cc(-c2cc(Cl)ccc2OCCn2c(C)nc3cc(C(F)(F)F)c(CN4CCN(C)CC4)c(C#N)c3c2=O)c2sc(C)c(C(=O)O)c2n1` [compound 417], the IC50 is under 50 nM under setting [1] and 19.7 nM under setting [2].

Consider `N#Cc1cc2c(=O)n(CCOc3ccc(Cl)cc3-c3ccc(C(=O)O)o3)cnc2cn1` [compound 79], for which the IC50 under setting [1] was over 1000 nM and the IC50 under setting [2] was 1650 nM.

Take `COc1ccc(-c2cc(Cl)ccc2OCCn2c(C)nc3c(C)ncc(C#N)c3c2=O)c2scc(C(=O)O)c12` [compound 721]: the IC50 by setting is: under setting [1], under 50 nM; under setting [2], 20.6 nM.

Take `CCN(c1ncc2nc(C)n(CC#Cc3ccc(Cl)cc3-c3ccnc4c(C(=O)NS(=O)(=O)C5COC5)csc34)c(=O)c2c1C#N)C1CCN([C@H]2C[C@H](OC(F)F)C2)CC1` [compound 1768]: under setting [3], the IC50 is 31.3 nM.

Take `Cc1cc(-c2cc(Cl)ccc2OCCn2c(C)nc3cnc(N4CCCC4=O)c(C#N)c3c2=O)c2scc(C(=O)O)c2n1` [compound 977]: the IC50 was under 50 nM under setting [1] and 14.4 nM under setting [2].

For the molecule `Cc1cc(-c2cc(Cl)ccc2OCCn2c(C)nc3cc(C(F)(F)F)c(-c4cc(F)ccn4)c(C#N)c3c2=O)c2scc(C(=O)O)c2n1` [compound 777], the IC50 reads like this: under setting [1], 50 to 1000 nM; under setting [2], 53.3 nM.

Take `Cc1nc2ccc(CCN(C)C)c(C#N)c2c(=O)n1CCOc1ccc(Cl)cc1-c1ccnc2c(C(=O)O)csc12` [compound 507]: the IC50 is, setting by setting: under setting [1], under 50 nM; under setting [2], 49 nM.

Turning to `Cc1ccc(-c2cc(Cl)ccc2OCCn2c(C)nc3cnc(C4CC4)c(C#N)c3c2=O)c2scc(C(=O)O)c12` [compound 794], the IC50 under setting [1] is under 50 nM and the IC50 under setting [2] is 3.41 nM.

`Cc1nc2cc(CN(C)C)cc(C#N)c2c(=O)n1CCOc1ccc(Cl)cc1-c1ccnc2c(C(=O)O)csc12` [compound 512]: the IC50 reads like this: under setting [1], 50 to 1000 nM; under setting [2], 71.8 nM.

Turning to `Cc1cc(-c2cc(Cl)ccc2OCCn2c(C)nc3cc(C(F)(F)F)c(CC4CNC4)c(C#N)c3c2=O)c2scc(C(=O)O)c2n1` [compound 424], the IC50 was under 50 nM under setting [1] and 4.08 nM under setting [2].

Turning to `CONC(=O)c1csc2c(-c3cc(Cl)ccc3OCCn3c(C)nc4cc(C(F)(F)F)c(Cl)c(C#N)c4c3=O)ccnc12` [compound 521], the IC50 by setting is: under setting [1], 50 to 1000 nM; under setting [2], 623 nM.

As for `Cc1nc2cnc(N3CC4(CN(CC(F)F)C4)C3)c(C#N)c2c(=O)n1CC#Cc1ccc(Cl)cc1-c1ccnc2c(C(=O)O)csc12` [compound 893], the IC50 under setting [1] was under 50 nM and the IC50 under setting [2] is 20.1 nM.

Turning to `COc1ccc(S(=O)(=O)NC(=O)c2csc3c(-c4cc(Cl)ccc4C#CCn4c(C)nc5cnc(N(C)C6CCN(CC(C)(F)F)CC6)c(C#N)c5c4=O)ccnc23)cn1` [compound 1681], the IC50 under setting [3] was 8.27 nM.

On to `Cc1ccc(C)c(-c2c(C(F)(F)F)cc3nc(C)n(CCOc4ccc(Cl)cc4-c4cc(C)nc5c(C(=O)O)csc45)c(=O)c3c2C#N)n1` [compound 906], for which the IC50 under setting [1] was under 50 nM and the IC50 under setting [2] is 17.6 nM.

Regarding `Cc1nc2cc(C(F)(F)F)c(N3CCN(C)CC3)c(C#N)c2c(=O)n1CC#Cc1ccc(Cl)cc1-c1ccnc2c(C(=O)O)csc12` [compound 1212], the IC50 under setting [1] was under 50 nM and the IC50 under setting [3] is 44.2 nM.

On to `Cc1nc2cnc(C3=CCC(F)(F)CC3)c(C#N)c2c(=O)n1CCOc1ccc(Cl)cc1-c1ccnc2c(C(=O)O)csc12` [compound 882], for which the IC50 reads like this: under setting [1], under 50 nM; under setting [2], 6.62 nM.

On to `Cc1nc2cc(C(F)(F)F)c(N3CCN(c4ccccn4)CC3)c(C#N)c2c(=O)n1CCOc1ccc(Cl)cc1-c1cccc(C(=O)O)c1` [compound 379], for which the IC50 under setting [1] is under 50 nM and the IC50 under setting [2] was 26.7 nM.

For `N#Cc1cc(Br)cc2ncn(CCOc3ccc(Cl)cc3-c3cccc(C(=O)O)c3)c(=O)c12` [compound 1988], the IC50 under setting [3] was 49.5 nM.

`Cc1cc(-c2cc(Cl)ccc2OCCn2c(C)nc3c(F)c(C(F)(F)F)cc(C#N)c3c2=O)c2scc(C(=O)O)c2n1` [compound 589]: the IC50 reads like this: under setting [1], under 50 nM; under setting [2], 4.45 nM.

Regarding `Cc1cc(-c2cc(Cl)ccc2OCCn2c(C)nc3cc(C(F)(F)F)c(-c4ccccc4C#N)nc3c2=O)c2scc(C(=O)O)c2n1` [345a], under setting [2], the IC50 was 43.2 nM.

With `Cn1nc(C(=O)O)cc1-c1cc(Cl)ccc1OCCn1cnc2cnc(C#N)cc2c1=O` [compound 84], the IC50 runs as follows: under setting [1], over 1000 nM; under setting [2], 1250 nM.

Regarding `Cc1nc2cnc(N(C)C3CCN(CCC(C)(F)F)CC3)c(C#N)c2c(=O)n1CC#Cc1ccc(Cl)cc1-c1ccnc2c(C(=O)NS(C)(=O)=O)csc12` [compound 1713], the IC50 under setting [3] was 15.8 nM.

For `Cc1nc2cnc(C#N)cc2c(=O)n1CCOc1ccc(Cl)cc1-c1cccc(C(=O)O)c1` [compound 1995], the IC50 under setting [3] is 59.3 nM.

With `Cc1nc2cnc(N(C)C3CCN(CC(F)(F)C4CC4)CC3)c(C#N)c2c(=O)n1CCOc1ccc(Cl)cc1-c1ccnc2c(C(=O)O)csc12` [compound 1126], the IC50 reads like this: under setting [1], under 50 nM; under setting [2], 26.6 nM.

In the case of `Cc1cc(-c2cc(Cl)ccc2OCCn2c(C)nc3cc(S(C)(=O)=O)c(N4CCN(C)CC4)cc3c2=O)c2scc(C(=O)O)c2n1` [compound 1209], the IC50 under setting [1] was 50 to 1000 nM and the IC50 under setting [3] is 98 nM.

As for `Cc1nc2cc(OC(F)F)c(C#N)c(C#N)c2c(=O)n1CCOc1ccc(Cl)cc1-c1ccnc2c(C(=O)O)csc12` [compound 538], the IC50 runs as follows: under setting [1], under 50 nM; under setting [2], 22.3 nM.

Take `Cc1nc2cnc(N(C)C3CCN(CC4(F)COC4)CC3)c(C#N)c2c(=O)n1CC#Cc1ccc(Cl)cc1-c1ccnc2c(C(=O)O)csc12` [compound 1185]: the IC50 is, setting by setting: under setting [1], under 50 nM; under setting [2], 17.6 nM.

`Cc1cc(-c2cc(Cl)ccc2OCCn2c(C)nc3cc(C(F)(F)F)c(N4CCC(C)(C)CC4)nc3c2=O)c2scc(C(=O)O)c2n1` [compound 801]: the IC50 is, setting by setting: under setting [1], under 50 nM; under setting [2], 17 nM.

With `Cc1nc2cnc(N(C)C3CCN(CC(C)(F)F)CC3)c(C#N)c2c(=O)n1CC#Cc1ccc(Cl)cc1-c1ccnc2c(C(=O)NS(=O)(=O)C3COC3)csc12` [compound 1183], the IC50 under setting [1] is under 50 nM and the IC50 under setting [2] is 23.2 nM.

Consider `CC(=O)Nc1ccc(-c2cc(Cl)ccc2OCCn2cnc3cnc(C#N)cc3c2=O)cc1C(=O)O` [compound 103], for which the IC50 by setting is: under setting [1], 50 to 1000 nM; under setting [2], 747 nM.

Regarding `Cc1sc2c(-c3cc(Cl)ccc3OCCn3c(C)nc4cc(C(F)(F)F)cc(C#N)c4c3=O)ccnc2c1C(=O)O` [compound 205], the IC50 was 50 to 1000 nM under setting [1] and 101 nM under setting [2].

Consider `Cc1cc(-c2cc(Cl)ccc2OCCn2c(C)nc3cnc(-c4cc(Cl)ccc4C)c(C#N)c3c2=O)c2scc(C(=O)O)c2n1` [compound 953], for which the IC50 under setting [1] is under 50 nM and the IC50 under setting [2] is 13.4 nM.

As to `Cc1nc2c(F)cc(Cl)c(C#N)c2c(=O)n1CCOc1ccc(Cl)cc1-c1ccnc2c(C(=O)O)csc12` [compound 407], the IC50 under setting [1] was under 50 nM and the IC50 under setting [2] is 33.1 nM.

Regarding `CCC#Cc1c(C(=O)O)cccc1-c1cc(Cl)ccc1OCCn1c(C(F)F)nc2cccc(C#N)c2c1=O` [compound 1987], the IC50 under setting [3] was 1290 nM.

As to `Cc1nc2cnc(N(C)C3CCN(CCOC(F)F)CC3)c(C#N)c2c(=O)n1CC#Cc1ccc(Cl)cc1-c1ccnc2c(C(=O)O)csc12` [compound 1503], the IC50 under setting [3] is 19.2 nM.

For the molecule `Cc1cc(-c2cc(Cl)ccc2OCCn2c(C)nc3cc(Cl)c(NC(C)(C)C)c(C#N)c3c2=O)c2scc(C(=O)O)c2n1` [compound 956], the IC50 reads like this: under setting [1], under 50 nM; under setting [2], 16.5 nM.

`COC(=O)c1sc2c(-c3cc(Cl)ccc3OCCn3c(C)nc4cc(C(F)(F)F)cc(C#N)c4c3=O)ccnc2c1O` [compound 2037]: under setting [3], the IC50 is over 1000 nM.

For `Cc1nc2cc(C(F)(F)F)c(CN3CCOCC3)c(C#N)c2c(=O)n1CC#Cc1ccc(Cl)cc1-c1ccnc2c(C(=O)O)csc12` [compound 617], the IC50 runs as follows: under setting [1], under 50 nM; under setting [2], 39.7 nM.

Turning to `Cc1nc2cnc(N(C)C3CCN(CC(F)(F)C4CC4)CC3)c(C#N)c2c(=O)n1CC#Cc1ccc(Cl)cc1-c1ccnc2c(C(=O)O)csc12` [compound 1125], the IC50 was under 50 nM under setting [1] and 14.5 nM under setting [2].

For the molecule `Cc1nc2cncc(C#N)c2c(=O)n1CC#Cc1ccc(Cl)cc1-c1ccnc2c(C(=O)O)csc12` [compound 624], the IC50 by setting is: under setting [1], under 50 nM; under setting [2], 4.02 nM.

For `Cc1cc(-c2cc(Cl)ccc2OCCn2c(C)nc3cnc(C4CC4)c(C#N)c3c2=O)c2scc(C(=O)NS(C)(=O)=O)c2n1` [compound 385], the IC50 is, setting by setting: under setting [1], under 50 nM; under setting [2], 39.5 nM.

Consider `Cc1nc2cc(C(F)(F)F)c(N3CCN(C)CC3)c(C#N)c2c(=O)n1CCOc1ccc(Cl)cc1-c1ccnc2c(C(=O)NS(C)(=O)=O)csc12` [compound 1151], for which the IC50 was under 50 nM under setting [1] and 19 nM under setting [2].

As for `Cc1nc2cc(C(F)(F)F)cc(C#N)c2c(=O)n1CCOc1ccc(Cl)cc1-c1cc(CO)nc2c(C(=O)O)csc12` [compound 484], the IC50 under setting [1] was under 50 nM and the IC50 under setting [2] was 11.6 nM.

For the molecule `Cc1cc(-c2cc(Cl)ccc2OCCn2c(C)nc3cc(CCCN(C)C)c(Cl)c(C#N)c3c2=O)c2scc(C(=O)O)c2n1` [compound 606], the IC50 is under 50 nM under setting [1] and 4.12 nM under setting [2].
